pEC50: −log10 of the molar value.
System: Bmi-1
Experiment: Sandwich ELISA Assay (Bmi-1 ELISA) in HT-1080 cells
Assay type: cell-based
Protocol: Cell Seeding and Compound Treatment (Day 1):
HT-1080 cells were seeded at 8000 cells/well (50 μL) in 96-well tissue culture plates. After the cells became adherent (3-4 hours), 2× diluted stocks of test compounds in 50 μL DMEM containing 1% DMSO (final DMSO concentration was 0.5%) were added and the plates were incubated at 37° C. under 5% CO2 for 40-48 hours.
ELISA Plate First Antibody Preparation (Day 2):
The First Antibody (Millipore Mouse, monoclonal to mouse Bmi-1, clone F6, catalog #05-637) diluted to 2 μg/mL in PBS was added (100 μL) to each well of a Nunc MaxiSorp 96-well ELISA plate. The plate was covered with a plate seal and allowed to stand overnight.
Cell Lysate Preparation (Day 3):
Fresh 1× Lysis buffer was prepared on the day of the assay as follows: 1 mM EDTA, 150 mM NaCl, 0.5% Triton-X 100, 10 mM NaF, 20 mM B-Glycerophosphate, 1 mM DTT (in PBS, pH 7.2-7.4) and 1× HALT protease inhibitor cocktail (Pierce #78410).
The 1× Lysis Buffer (40 μL) was added to each well and the plate was shaken for 5-10 minutes on an orbital shaker to allow cell lysis, then diluent (1% BSA in PBS in 0.5% NP40) (100 μL) was added to each well.
A standard curve was prepared at the following Bmi-1 concentrations: 8000, 4000, 2000, 1000, 500, 250, 125, 0 pg/mL The Bmi-1 Recombinant Protein Standard (Novus Biologicals PCGF4 Recombinant Protein (P01), catalog #H00000648-P01) used to prepare the standard curve was stored at −80° C. On first thaw, the Bmi-1 Recombinant Protein Standard was diluted to […] in Blocking Buffer (1% BSA in PBS; BSA: Fisher Scientific Catalog #1600-100). Aliquots were taken and refrozen at −80° C. The aliquots may be kept at 4° C. and reused after first thaw, but only within 1-2 weeks. The Bmi-1 Recombinant Protein Standard contains a GST-fusion tag that appears around 70 Kda on Western Blot.
The prepared ELISA plate was washed 3× with Wash Buffer (0.05% Tween-20 in PBS). The final wash was removed from the plate and the plate was blotted dry. Blocking Buffer (300 μL) (1% BSA in PBS) was added to each well. The plate was covered with a plate seal and incubated at room temperature for 1 hour. The blocked plate was washed 3× with Wash Buffer, then the final wash was removed and the plate was blotted dry. The previously prepared samples and standards were added (100 μL/well) and the plate was covered with a plate seal and incubated at 4° C. overnight.
The prepared ELISA plate was removed from 4° C., incubated at room temperature for 30 minutes, then washed and blotted dry as previously described for Day 3. The Second Antibody (Cell Signaling Rabbit anti-Bmi-1, Cat #2830) diluted to 1:600 in Blocking Buffer was added (100 μL) to each well, except as needed for background control wells. The plate was covered with a plate seal and incubated for 1.5 hrs at room temperature.
The ELISA plate was washed and blotted dry as previously described. The Third Antibody (Cell Signaling HRP conjugated anti-rabbit IgG (CellSignaling, Cat #:7074) diluted to 1:300 in Blocking Buffer was added (100 μL) to each well, except as needed for background control wells. The plate was incubated for 1 hr at room temperature.
The plate was washed and blotted dry as previously described, then prepared TMB substrate (TMB substrate kit, Pierce catalog #34021) (prepared by mixing kit reagents 1:1) (100 μL) was added per well. The plate was incubated for 20-30 minutes at room temperature in the dark, then Stop Solution (2 M sulfuric acid in water) (50 μL) was added per well. The plates were read at OD450 (experimental) and OD570 (reference).

Row | Compound | pEC50
1 | Cc1nc2c(F)cccc2n1-c1nc(N)c(F)c(Nc2ccc(OC(F)F)c(F)c2)n1 [Cpd 136, N-[4-(difluoromethoxy)-3-fluorophenyl]-5-fluoro-2-(4-fluoro-2-methyl-1H-benzimidazol-1-yl)pyrimidine-4,6-diamine] | 7.00 to 8.00
2 | Fc1ccc2nc(C(F)(F)F)c(-c3nccc(Nc4ccc(C(F)(F)F)cc4)n3)n2c1 [Cpd 54, 2-[6-fluoro-2-(trifluoromethyl)imidazo[1,2-a]pyridin-3-yl]-N-[4-(trifluoromethyl)phenyl]pyrimidin-4-amine] | 5.52 to 7.00
3 | COc1ccc(Nc2ccnc(-c3c(C(F)(F)F)nn4ccccc34)n2)cc1 [Cpd 60, N-(4-methoxyphenyl)-2-[2-(trifluoromethyl)pyrazolo[1,5-a]pyridin-3-yl]pyrimidin-4-amine] | 7.00 to 8.00
4 | COC(=O)c1ccc(Nc2nc(-n3c(C)nc4ccc(F)cc43)nc(N)c2F)cc1 [Cpd 193, methyl 4-{[6-amino-5-fluoro-2-(6-fluoro-2-methyl-1H-benzimidazol-1-yl)pyrimidin-4-yl]amino}benzoate] | 7.00 to 8.00
5 | Cc1nc2ccccc2n1-c1nccc(Nc2ccc(C(F)(F)F)cc2)n1 [Cpd 41, 2-(2-methyl-1H-benzimidazol-1-yl)-N-[4-(trifluoromethyl)phenyl]pyrimidin-4-amine] | 5.52 to 7.00
6 | COc1ccc(Nc2nc(-n3c(C)nc4ccc([N+](=O)[O-])cc43)nc(N)c2F)cc1 [Cpd 233, 5-fluoro-N-(4-methoxyphenyl)-2-(2-methyl-6-nitro-1H-benzimidazol-1-yl)pyrimidine-4,6-diamine] | 7.00 to 8.00
7 | COc1ccc(Nc2nc(-n3c(C)nc4cc(C#N)ccc43)nc(N)c2F)cc1 [Cpd 228] | 7.00 to 8.00
8 | Cc1nc2cc(F)ccc2n1-c1nc(N)c(F)c(Nc2ccc(Cl)c(F)c2)n1 [Cpd 260, N-(4-chloro-3-fluorophenyl)-5-fluoro-2-(5-fluoro-2-methyl-1H-benzimidazol-1-yl)pyrimidine-4,6-diamine] | 5.52 to 7.00
9 | Cc1nc2cc(F)ccc2n1-c1nc(N)c(F)c(Nc2ccc(C(F)(F)F)cc2)n1 [Cpd 108, 5-fluoro-2-(5-fluoro-2-methyl-1H-benzimidazol-1-yl)-N-[4-(trifluoromethyl)phenyl]pyrimidine-4,6-diamine] | 5.52 to 7.00
10 | Cc1nc2c(F)cc(F)cc2n1-c1nc(N)c(F)c(Nc2ccc(OC(F)F)c(F)c2)n1 [Cpd 128, N-[4-(difluoromethoxy)-3-fluorophenyl]-2-(4,6-difluoro-2-methyl-1H-benzimidazol-1-yl)-5-fluoropyrimidine-4,6-diamine] | 7.00 to 8.00
11 | Nc1nc(-n2c(C3CC3)nc3ccccc32)nc(Nc2ccc(OC(F)F)cc2)c1F [Cpd 121, 2-(2-cyclopropyl-1H-benzimidazol-1-yl)-N-[4-(difluoromethoxy)phenyl]-5-fluoropyrimidine-4,6-diamine] | 8.00 to 9.00
12 | COc1ccc(Nc2cc(N)nc(-n3c(C)nc4ccc(F)cc43)n2)cc1 [Cpd 265, 2-(6-fluoro-2-methyl-1H-benzimidazol-1-yl)-N-(4-methoxyphenyl)pyrimidine-4,6-diamine] | 8.00 to 9.00
13 | COc1ccc(Nc2cc(N)nc(-n3c(C)nc4ccccc43)n2)cc1 [Cpd 197, N-(4-methoxyphenyl)-2-(2-methyl-1H-benzimidazol-1-yl)pyrimidine-4,6-diamine] | 8.00 to 9.00
14 | COCc1nc2ccccc2n1-c1nc(N)c(F)c(Nc2ccc(C)cc2)n1 [Cpd 217, 5-fluoro-2-[2-(methoxymethyl)-1H-benzimidazol-1-yl]-N-(4-methylphenyl)pyrimidine-4,6-diamine] | 7.00 to 8.00
15 | COc1ccc2nc(C)n(-c3nc(N)c(F)c(Nc4ccc(C(F)(F)F)cc4)n3)c2c1 [Cpd 244, 5-fluoro-2-(6-methoxy-2-methyl-1H-benzimidazol-1-yl)-N-[4-(trifluoromethyl)phenyl]pyrimidine-4,6-diamine] | 7.00 to 8.00
16 | Cc1nc2ccc(F)cc2n1-c1nc(N)c(F)c(Nc2cccc(Cl)c2)n1 [Cpd 190, N-(3-chlorophenyl)-5-fluoro-2-(6-fluoro-2-methyl-1H-benzimidazol-1-yl)pyrimidine-4,6-diamine] | 5.52 to 7.00
17 | Nc1nc(-n2c(C3CC3)nc3c(F)cccc32)nc(Nc2ccc(OC(F)F)cc2)c1F [Cpd 141, 2-(2-cyclopropyl-4-fluoro-1H-benzimidazol-1-yl)-N-[4-(difluoromethoxy)phenyl]-5-fluoropyrimidine-4,6-diamine] | 7.00 to 8.00

The remaining lines, values ahead:

Row | pEC50 | Compound
18 | 5.52 to 7.00 | FC(F)Oc1ccc(Nc2ccnc(-c3c(C(F)(F)F)nc4cnccn34)n2)cc1 [Cpd 53, N-[4-(difluoromethoxy)phenyl]-2-[2-(trifluoromethyl)imidazo[1,2-a]pyrazin-3-yl]pyrimidin-4-amine]
19 | 7.00 to 8.00 | Cc1ccc(Nc2nc(-c3c(C(F)(F)F)nc4ccccn34)ncc2F)cc1 [Cpd 43, 5-fluoro-N-(4-methylphenyl)-2-[2-(trifluoromethyl)imidazo[1,2-a]pyridin-3-yl]pyrimidin-4-amine]
20 | 7.00 to 8.00 | Cc1nc2ccc(F)cc2n1-c1nc(N)c(F)c(Nc2ccc(Cl)cc2)n1 [Cpd 185, N-(4-chlorophenyl)-5-fluoro-2-(6-fluoro-2-methyl-1H-benzimidazol-1-yl)pyrimidine-4,6-diamine]
21 | 7.00 to 8.00 | COc1ccc(Nc2nc(-c3c(C)nn4ccccc34)nc(N)c2F)cc1 [Cpd 239, 5-fluoro-N-(4-methoxyphenyl)-2-(2-methylpyrazolo[1,5-a]pyridin-3-yl)pyrimidine-4,6-diamine]
22 | 5.52 to 7.00 | COc1cccc(Nc2nc(-n3c(C)nc4ccccc43)nc(N)c2F)c1 [Cpd 195, 5-fluoro-N-(3-methoxyphenyl)-2-(2-methyl-1H-benzimidazol-1-yl)pyrimidine-4,6-diamine]
23 | 8.00 to 9.00 | Cc1ccc(Nc2nc(-n3c(C4CC4)nc4ccccc43)nc(N)c2F)cc1 [Cpd 276, 2-(2-cyclopropyl-1H-benzimidazol-1-yl)-5-fluoro-N-(4-methylphenyl)pyrimidine-4,6-diamine]
24 | 7.00 to 8.00 | FC(F)(F)c1nc2ccccn2c1-c1nccc(Nc2ccc(Br)cc2)n1 [Cpd 10, N-(4-bromophenyl)-2-[2-(trifluoromethyl)imidazo[1,2-a]pyridin-3-yl]pyrimidin-4-amine]
25 | 7.00 to 8.00 | Cc1nc2ccccn2c1-c1nccc(Nc2ccc(C(F)(F)F)cc2)n1 [Cpd 3, 2-(2-methylimidazo[1,2-a]pyridin-3-yl)-N-[4-(trifluoromethyl)phenyl]pyrimidin-4-amine]
26 | 7.00 to 8.00 | Cc1nc2ccccc2n1-c1nc(N)c(F)c(Nc2ccc(OC(F)F)cc2)n1 [Cpd 106, N-[4-(difluoromethoxy)phenyl]-5-fluoro-2-(2-methyl-1H-benzimidazol-1-yl)pyrimidine-4,6-diamine]
27 | 7.00 to 8.00 | Nc1nc(-n2c(C3CC3)nc3ncc(F)cc32)nc(Nc2ccc(OC(F)F)cc2)c1F [Cpd 155, 2-(2-cyclopropyl-6-fluoro-1H-imidazo[4,5-b]pyridin-1-yl)-N-[4-(difluoromethoxy)phenyl]-5-fluoropyrimidine-4,6-diamine]
28 | 8.00 to 9.00 | CCc1nc2ccccc2n1-c1nc(N)cc(Nc2ccc(OC(F)F)cc2)n1 [Cpd 156, N-[4-(difluoromethoxy)phenyl]-2-(2-ethyl-1H-benzimidazol-1-yl)pyrimidine-4,6-diamine]
29 | 7.00 to 8.00 | COc1ccc(Nc2ccnc(-n3c(C)nc4ccccc43)n2)cc1 [Cpd 1, N-(4-methoxyphenyl)-2-(2-methyl-1H-benzimidazol-1-yl)pyrimidin-4-amine]
30 | 5.52 to 7.00 | Cc1cccc(Nc2nc(-n3c(C)nc4ccccc43)nc(N)c2F)c1 [Cpd 194, 5-fluoro-2-(2-methyl-1H-benzimidazol-1-yl)-N-(3-methylphenyl)pyrimidine-4,6-diamine]

From patent US11180483B2, “Substituted reverse pyrimidine Bmi-1 inhibitors” (PTC Therapeutics, Inc., priority 2012, dated 2021)
